Data published in patent publication US20180094248A1, “Necroptosis Signaling as a Therapeutic Target for Alzheimer's Disease” (Arizona Board of Regents on behalf of Arizona State …, priority 2016, published 2018).

How the values were obtained:
phosphorylated MLKL [1] = assay: Western blot of total and phosphorylated MLKL in primary neurons (NeuN experiment); format: cell-based, mouse
Procedure: To probe for a direct link between necroptosis and neuronal loss in AD, we plated primary cortical neurons from APP/PS1 and wild type littermate mice. After seven days in vitro (DIV), neurons were treated with 10 μM of the necroptosis inhibitor 7-Cl-O-necrostatin (Nec15) or vehicle. Treatment was repeated at DIV 11. We then fixed neurons at DIV 11 and 15, and stained them for NeuN to count total number of neurons. […] To determine changes in necroptosis, we isolated proteins from neurons of the same four groups and measured the levels of total and phosphorylated MLKL by western blot.
(§1) Western blot and ELISA: The proteins were run using reducing conditions in precast gels (Thermo Fisher Scientific) and transferred to nitrocellulose membranes (iBlot, Thermo Fisher Scientific). […] The blots were then washed with TBS-T, and imaged/quantified using a LICOR Odyssey CLx (LI-COR Biosciences) attached to a Dell computer (OptiPlex 7010) running Windows 7 and Image Studio (version 1.0.11, LI-COR Biosciences). […]
(§2) Primary neuronal cultures—For the GFP experiments: Primary neurons were isolated from APP/PS1 and NonTg Po pups. […] Neurons were treated for a total of 15 days and the GFP fluorescence was measured every 4 days. […] All fluorescent measurements (excitation 488 nm, emission 509 nm) were performed using the Synergy HT multi-mode microplate reader with the Gen5 software (BioTek, Winooski, Vt.). […]

phosphorylated MLKL [2] = assay: Western blot of total and phosphorylated MLKL in primary neurons (AAV-GFP experiment); format: cell-based, mouse
Procedure: At DIV 1, we infected primary cortical neurons isolated from APP/PS1 and wild type mice with an adeno-associated virus (AAV) expressing the green fluorescent protein (GFP) under the neuronal promotor CamKII. At DIV 7 and 11, neurons from the two genotypes were treated with 10 μM Nec1S or vehicle. We then measured GFP fluorescence in live cells as an indication of live neurons.
as §1
as §2, with “Vt.). The reader was pre-heated to 37° C. to maintain optimal conditions for the neurons during the measurements.” for “Vt.).”

[3] = DIV 15, 10 μM, APP/PS1-veh group vs the other three groups incl. APP/PS1-Nec1S

## CN1C(=O)NC(Cc2c[nH]c3c(Cl)cccc23)C1=O (stereo not shown) [Nec1S, 5-((7-chloro-1 H-indol-3-yl)methyl)-3-methylimidazolidine-2,4-dione]
Phosphorylated MLKL [1]; DIV 11, all four groups, NeuN experiment
  pMLKL level: not detectable
Phosphorylated MLKL [1]; [3]
  ratio pMLKL/MLKL: statistically different compared to the other three groups
Phosphorylated MLKL [2]; DIV 11, all four groups, AAV-GFP experiment
  pMLKL level: not detectable
Phosphorylated MLKL [2]; [3]
  ratio pMLKL/MLKL: statistically different compared to the other three groups
